Experimental data: patent publication US20220401418A1, “TREATMENT OF MALARIA USING HISTONE DEACETYLASE (HDAC) INHIBITORS” (FOUNDATION FOR NEGLECTED DISEASE RESEARCH, priority 2019, published 2022)
Where two headings read alike, the source gives them in different places.

Columns and labels:
[1] = test system: Hu HDAC (HeLa nuclear extract); assay: HDAC activity screening, fluorescence assay with HeLa nuclear extract; format: biochemical, human; conditions: HeLa nuclear extract as enzyme source
Protocol: HDAC inhibition screening was performed using a fluorescence-based assay with a fluorescent substrate (BocLys (Ac)-AMC Substrate). HeLa nuclear extract was used as the enzyme source.
The assay was performed in 96-well black microplates, and the total volume of the assay was set at 100 μl. […] The enzyme mixture was prepared by adding […] of the diluted enzyme (HeLa nuclear extract) to […] of HDAC buffer. From the enzyme mixture, 40 μl was taken and mixed with 10 μl of test compound (final concentration from 0.01 to 10 μM) or vehicle (control). The final mixture (50 μl) was added to each well which was then pre-incubated at 37° C. for 10 min. The HDAC reaction was started by adding 50 μl of HDAC substrate: Boc-Lys (Ac)-AMC (Anaspec, Inc Fremont, Calif., USA). […] The release of AMC was monitored by measuring the fluorescence at an excitation wavelength of 360 nm and an emission wavelength of 460 nm. Buffer and substrate alone served as blank.

Pf-HDAC1 = target: T1, Pf-HDAC1 (Plasmodium falciparum, UniProt Q7K6A1); assay: PfHDAC1 fluorescent activity assay; format: biochemical
T1 construct: His-tag; FLAG-tag; purchased BPS Bioscience
T1 sequence (Q7K6A1 1-449): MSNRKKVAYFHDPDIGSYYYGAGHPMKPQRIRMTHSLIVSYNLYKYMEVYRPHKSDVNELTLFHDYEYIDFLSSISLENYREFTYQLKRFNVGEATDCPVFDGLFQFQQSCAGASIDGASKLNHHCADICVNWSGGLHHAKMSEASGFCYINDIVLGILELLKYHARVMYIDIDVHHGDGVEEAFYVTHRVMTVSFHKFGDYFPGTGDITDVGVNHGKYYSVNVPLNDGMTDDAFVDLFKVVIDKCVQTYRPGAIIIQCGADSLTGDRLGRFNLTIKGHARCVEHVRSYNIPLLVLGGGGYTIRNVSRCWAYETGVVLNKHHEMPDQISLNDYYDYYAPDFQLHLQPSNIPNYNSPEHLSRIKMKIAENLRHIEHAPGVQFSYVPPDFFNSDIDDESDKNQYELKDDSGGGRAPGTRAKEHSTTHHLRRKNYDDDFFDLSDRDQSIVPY
Protocol: The fluorescence developed was measured with excitation at 350-380 nm and emission at 440-460 nm.

[2] = test system: Plasmodium falciparum 3D7; assay: Plasmodium falciparum asexual blood-stage (ABS) assay; format: cell-based
Protocol: Plasmodium falciparum 3[…]. falciparum asexual blood-stage (ABS) assay, for which the cells were resuscitated from the stabilate and maintained at 5% haematocrit. Red blood cells obtained from the hospital were used to maintain the culture at 1% parasitaemia while screening. Plasmodium falciparum: 3D7 cells were used as a target strain for the assay. Mefloquine (Sigma-Aldrich) was used as a standard inhibitor. At day 1, […] of 10 mM mefloquine was added to columns 12 and 24 of the sterile 384-well black, clear-bottom, cell culture assay plates followed by compound curves which were added using Echo. The P. falciparum 3D7 cells were counted and 20 ml of culture was prepared at 5% haematocrit, 0.3% parasitaemia (as one batch, i.e., 12 plates, prepare 260 ml, to allow for WellMate prime volume) for each plate. From this, 50 μl of culture was added to all wells on all plates using WellMate with small bore tubing on full (S-1) speed. […] The plates were read on Victor plate reader using '384sybrgreen' protocol (excitation 485 nm, emission 528 nm) after which the plate contents were aspirated into 5% Virkon, and disposed of after autoclaving. Percentage inhibition for each test compound was calculated using the following equation: % Inhibition=100-(TEST COMPOUND-BLANK)/(NO INHIBITION-BLANK)*100)

Plasma Protein = assay: Plasma protein binding, human; format: in vitro ADME; conditions: summary statement on Table 3, across species
Text: (§1) Method Reference for Table 3: Chung T D Y et al. In Vitro and In Vivo Assessment of ADME and PK Properties during lead selection and lead optimisation-guidelines, benchmarks and rules of thumb. In: Assay Guidance Manual. 2015.

[3] = format: in vitro ADME; conditions: mouse, microsomes, 2 h, 10 μM
Text: as §1

[4] = Microsomal stability, RLM; format: in vitro ADME; conditions: Test Conc. 10 μM
Text: as §1

[5] = Microsomal stability, HLM; format: in vitro ADME
Text: as §1

Plasma stability, mouse = format: in vitro ADME
Text: as §1

Plasma stability, rat = format: in vitro ADME
Text: as §1

Plasma stability, dog = format: in vitro ADME
Text: as §1

Plasma stability, human = format: in vitro ADME
Text: as §1

CYP 1A2 = target: T2, CYP 1A2 (Homo sapiens, UniProt P05177); assay: Cyp inhibition CYP 1A2; format: in vitro ADME; conditions: summary statement on Table 3, all CYP isoforms tested
T2 sequence (P05177 1-516): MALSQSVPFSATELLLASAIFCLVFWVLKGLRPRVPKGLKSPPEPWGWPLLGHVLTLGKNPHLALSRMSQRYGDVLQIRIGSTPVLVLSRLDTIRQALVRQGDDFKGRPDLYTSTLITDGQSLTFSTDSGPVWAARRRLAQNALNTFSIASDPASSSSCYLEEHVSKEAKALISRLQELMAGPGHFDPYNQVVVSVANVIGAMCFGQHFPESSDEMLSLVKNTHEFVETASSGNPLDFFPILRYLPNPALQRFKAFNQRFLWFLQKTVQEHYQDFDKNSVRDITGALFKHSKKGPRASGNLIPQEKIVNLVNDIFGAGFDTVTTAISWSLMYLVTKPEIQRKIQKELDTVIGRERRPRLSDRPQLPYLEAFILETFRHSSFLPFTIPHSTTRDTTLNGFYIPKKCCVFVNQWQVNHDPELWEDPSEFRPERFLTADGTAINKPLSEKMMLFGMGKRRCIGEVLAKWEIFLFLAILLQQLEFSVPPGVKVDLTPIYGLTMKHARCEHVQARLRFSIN
Text: as §1

CYP 2D6 = CYP 2D6 (Homo sapiens, UniProt P10635); assay: Cyp inhibition CYP 2D6; format: in vitro ADME
CYP 2D6, sequence (P10635 whole entry, species assumed): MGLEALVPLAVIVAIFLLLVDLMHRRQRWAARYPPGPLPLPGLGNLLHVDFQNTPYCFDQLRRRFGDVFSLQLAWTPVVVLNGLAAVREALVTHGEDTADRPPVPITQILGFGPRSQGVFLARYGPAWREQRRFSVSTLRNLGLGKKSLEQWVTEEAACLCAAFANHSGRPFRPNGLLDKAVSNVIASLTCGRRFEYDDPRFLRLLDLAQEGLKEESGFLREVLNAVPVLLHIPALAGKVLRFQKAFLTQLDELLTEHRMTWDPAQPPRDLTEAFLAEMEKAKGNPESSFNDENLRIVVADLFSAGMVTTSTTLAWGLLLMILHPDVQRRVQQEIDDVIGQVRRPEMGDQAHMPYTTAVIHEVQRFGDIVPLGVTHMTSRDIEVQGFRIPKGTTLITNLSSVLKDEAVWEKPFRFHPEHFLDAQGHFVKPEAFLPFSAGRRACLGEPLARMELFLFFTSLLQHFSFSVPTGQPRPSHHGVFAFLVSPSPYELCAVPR
Text: as §1

CYP 3A4 = CYP 3A4 (Homo sapiens, UniProt P08684); assay: Cyp inhibition CYP 3A4; format: in vitro ADME
CYP 3A4, sequence (P08684 whole entry, species assumed): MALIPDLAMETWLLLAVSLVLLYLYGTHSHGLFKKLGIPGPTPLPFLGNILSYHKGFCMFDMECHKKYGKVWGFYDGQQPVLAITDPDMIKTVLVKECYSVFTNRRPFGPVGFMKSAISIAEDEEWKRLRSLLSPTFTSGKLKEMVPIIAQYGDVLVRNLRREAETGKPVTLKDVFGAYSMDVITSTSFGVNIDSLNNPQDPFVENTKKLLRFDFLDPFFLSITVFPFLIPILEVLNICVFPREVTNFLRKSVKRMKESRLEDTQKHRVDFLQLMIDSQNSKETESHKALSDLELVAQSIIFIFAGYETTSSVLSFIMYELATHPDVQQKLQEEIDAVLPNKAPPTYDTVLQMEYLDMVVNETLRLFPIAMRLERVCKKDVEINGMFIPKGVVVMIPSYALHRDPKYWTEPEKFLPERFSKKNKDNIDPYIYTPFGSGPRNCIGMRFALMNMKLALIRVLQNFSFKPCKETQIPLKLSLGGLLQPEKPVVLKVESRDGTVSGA
Text: as §1

HepG2 = assay: Cytotoxicity HepG2; format: cell-based
Text: as §1

HERG = HERG (Homo sapiens, UniProt Q12809); assay: HERG binding; conditions: summary statement on Table 3
HERG, sequence (Q12809 whole entry): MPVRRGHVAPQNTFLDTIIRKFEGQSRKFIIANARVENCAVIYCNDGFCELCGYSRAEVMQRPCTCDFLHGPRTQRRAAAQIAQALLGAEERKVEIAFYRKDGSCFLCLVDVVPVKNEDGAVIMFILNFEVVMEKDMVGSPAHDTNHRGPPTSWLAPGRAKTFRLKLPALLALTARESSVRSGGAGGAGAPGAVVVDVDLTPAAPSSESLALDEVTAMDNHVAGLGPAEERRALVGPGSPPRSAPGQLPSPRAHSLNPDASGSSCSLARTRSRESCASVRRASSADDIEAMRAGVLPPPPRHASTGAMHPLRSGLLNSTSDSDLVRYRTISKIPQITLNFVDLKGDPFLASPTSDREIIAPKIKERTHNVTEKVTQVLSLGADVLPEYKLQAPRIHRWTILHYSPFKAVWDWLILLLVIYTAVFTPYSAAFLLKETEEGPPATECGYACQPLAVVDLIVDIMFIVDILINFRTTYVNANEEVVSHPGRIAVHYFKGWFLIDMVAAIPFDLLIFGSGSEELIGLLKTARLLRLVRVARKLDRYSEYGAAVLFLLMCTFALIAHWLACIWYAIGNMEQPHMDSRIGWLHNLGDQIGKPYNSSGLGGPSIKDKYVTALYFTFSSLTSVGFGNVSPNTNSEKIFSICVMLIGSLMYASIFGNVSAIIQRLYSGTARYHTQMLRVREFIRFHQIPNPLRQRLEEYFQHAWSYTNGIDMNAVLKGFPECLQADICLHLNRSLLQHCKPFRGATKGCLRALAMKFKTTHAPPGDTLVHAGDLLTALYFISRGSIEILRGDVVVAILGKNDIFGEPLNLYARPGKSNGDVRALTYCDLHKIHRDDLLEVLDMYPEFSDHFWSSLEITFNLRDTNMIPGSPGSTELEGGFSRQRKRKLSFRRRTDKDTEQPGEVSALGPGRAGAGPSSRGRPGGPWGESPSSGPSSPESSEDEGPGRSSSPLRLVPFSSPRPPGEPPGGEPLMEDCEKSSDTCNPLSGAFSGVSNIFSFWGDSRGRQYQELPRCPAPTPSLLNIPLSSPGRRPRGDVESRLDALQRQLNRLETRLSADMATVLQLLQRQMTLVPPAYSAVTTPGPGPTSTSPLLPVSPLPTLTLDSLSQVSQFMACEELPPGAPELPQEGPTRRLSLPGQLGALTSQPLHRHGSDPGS
Text: as §1

P. falciparum = assay: In vivo efficacy in humanized SCID mouse model of P. falciparum malaria; conditions: for reduction in parasitaemia: intra-peritoneal, humanized SCID mice
Text: In vivo efficacy assessed in humanized SCID mouse model of P. falciparum malaria.

## O=C(NO)c1ccc(Cn2cc(-c3ccc(CN4CCCC4)cc3)nn2)cc1 [FNDR-20123, N-hydroxy-4-((4-(4-(pyrrolidin-1-ylmethyl)phenyl)-1H-1,2,3-triazol-1-yl)methyl)benzamide]
[1]
  IC50: ~3 nM
[1]; listed as 20123
  IC50: 3 nM
Pf-HDAC1
  IC50: 31 nM
[2]; Plasmodium falciparum, P. falciparum 3D7, 72 h, read-out: Anti-Malarial Activity Asexual Blood Stage IC50
  IC50: 41 nM
[2]; screen of proprietary compound library
  anti-malarial activity in library screen: potent anti-malarial activity
Plasma Protein
  plasma protein binding: low
[3]
  Microsomal Stability (% remaining at 120 min): 76.15%
[4]
  Microsomal Stability (% remaining at 120 min): 74.56%
[5]; HLM, Test Conc. 10 μM, 120 min
  Microsomal Stability (% remaining at 120 min): 85.31%
[5]; summary statement on Table 3, all microsome species
  liver microsomal stability: good
Plasma stability, mouse
  Plasma Stability (% remaining at 240 min): 89.16%
Plasma stability, rat
  Plasma Stability (% remaining at 240 min): 88.90%
Plasma stability, dog
  Plasma Stability (% remaining at 240 min): 97.72%
Plasma stability, human
  Plasma Stability (% remaining at 240 min): 98.94%
CYP 1A2
  inhibition of the CYP isoforms tested: no inhibition
CYP 2D6
  IC50: 28000 nM
CYP 3A4
  IC50: 27000 nM
HepG2
  Cytotoxicity HepG2 (% @ 100 μM): 12.6%
HERG
  hERG liability: no hERG liability
P. falciparum; 50 mg/kg
  reduction in parasitaemia: 98%
P. falciparum; 100 mg/kg
  reduction in parasitaemia: 99%
P. falciparum; oral, 50 mg/kg body weight for 4 days, humanized SCID mouse
  reduction in parasitemia: 67%
